Measurements as given in patent US12187705B2, “Heteroaryl-triazole and heteroaryl-tetrazole compounds as pesticides” (Bayer Aktiengesellschaft, priority 2018, dated 2025).

Legend:
Type in all cases: in vivo
[1] = system: Rhipicephalus sanguineus; assay: Rhipicephalus sanguineus in-vitro contact test with adult brown dog ticks; settings: 5 μg/cm^2 (=500 g/ha), after 48 hours; for pest or weed control at 5 µg/cm2, 5 µg/cm2: Rhipicephalus sanguineus, read-out: efficacy (ticks dead or moribund)
Experimental: Rhipicephalus sanguineus—In-Vitro Contact Test with Adult Brown Dog Ticks
9 mg compound is solved in 1 ml acetone and diluted with acetone to the desired concentration. 250 μl of the test solution is filled in 25 ml glass test tubes and homogeneously distributed on the inner walls by rotation and tilting on a shaking device (2 h at 30 rpm). With a compound concentration of 900 ppm, an inner surface of 44.7 cm^2 and a homogeneous distribution, a dose of 5 μg/cm^2 is achieved.
After the solvent has evaporated, each test tube is filled with 5-10 adult brown dog ticks (Rhipicephalus sanguineus), closed with a perforated lid and incubated in a lying position at room temperature and relative humidity. After 48 hours efficacy is determined. The ticks are patted on the ground of the tubes and are incubated on a heating plate at 45-50° C. for at most 5 minutes. Immotile or uncoordinated moving ticks, which are not able to escape the heat by climbing upwards, are marked as dead or moribund.
An efficacy of 100% means all ticks are dead or moribund; 0% means no ticks are dead or moribund.

[2] = system: Ctenocephalides felis; assay: Ctenocephalides felis in-vitro contact test adult cat flea; settings: 5 μg/cm^2 (=500 g/ha), after 48 hours; for pest or weed control at 5 µg/cm2, 5 µg/cm2: Ctenocephalides felis, read-out: efficacy (fleas dead or moribund)
Outline: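 Efficacy (% dead or moribund) was scored 48 h after adult Ctenocephalides felis were confined in tubes coated with the acetone-applied compound (900 ppm, 5 μg/cm^2). Moribund status was judged by failure to escape a 45-50° C heating plate within 5 minutes.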

[3] = system: Ctenocephalides felis; assay: Ctenocephalides felis oral test; settings: Ctenocephalides felis, in Bos taurus, po, 48 h
Outline: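 About 20 adult unfed fleas fed through parafilm on cattle blood containing compound (DMSO concentrate diluted in blood); blood held at 37° C., fleas at room temperature. Mortality in % scored after 2 days (100% = all killed).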

[4] = system: Boophilus microplus; assay: Boophilus microplus injection test; settings: 20 μg/animal, egg deposition after 7 days; for pest or weed control at 0.02 mg: Rhipicephalus microplus, 168 h, read-out: efficacy (infertile eggs)
Outline: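 Efficacy expresses the share of infertile eggs (100% all infertile, 0% all fertile), judged at 7 days or at hatching around day 42. Five adult engorged females were each injected abdominally with 1 μl of DMSO compound solution and incubated in a climate chamber.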

[5] = system: Nezara viridula; assay: Nezara viridula spray test; settings: in Hordeum vulgare, 96 h
Outline: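 Barley plants infested with stink bug larvae were sprayed with compound diluted in water containing 1000 ppm emulsifier. Mortality (%) was scored after 4 days, 100% meaning all bugs killed.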

[6] = system: Diabrotica balteata; assay: Diabrotica balteata spray test; settings: 160 μg/well, wheat seeds, after 7 days; for pest or weed control at 160 µg/disc, 160 µg/well: Diabrotica balteata, 168 h, read-out: efficacy (seedlings grown)
Outline: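 Efficacy (%) read 7 days after infesting treated seedlings with 10-20 banded cucumber beetle larvae, 100% meaning growth as in uninfected untreated control and 0% no growth. Test solutions in water containing 1000 ppm emulsifier were sprayed onto wheat seeds germinated for 1 day on agar.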

[7] = system: Myzus persicae; assay: Myzus persicae oral test; settings: 120 h
Outline: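 Feeding test: compound diluted in water was combined with IPL41 insect medium (33%+15% sugar) under a parafilm seal. A mixed population of green peach aphids fed through the membrane. Mortality (%) was scored after 5 days.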

[8] = system: Phaedon cochleariae; assay: Phaedon cochleariae spray test; settings: foliar, 168 h, Chinese cabbage leaf disks, after 7 days
Experimental: Phaedon cochleariae—Spray Test
(§1) To produce a suitable preparation of active compound, 1 part by weight of active compound is mixed with the stated amount of solvents and is diluted with water, containing an emulsifier concentration of 1000 ppm, to the desired concentration. Further test concentrations are prepared by dilution with emulsifier containing water.
Chinese cabbage (Brassica pekinensis) leaf disks are sprayed with a preparation of the active ingredient of the desired concentration. Once dry, the leaf disks are infested with mustard beetle larvae (Phaedon cochleariae).
After 7 days mortality in % is determined. 100% means all beetle larvae have been killed and 0% means none of the beetle larvae have been killed.

[9] = system: Nilaparvata lugens; assay: Nilaparvata lugens spray test; settings: for mortality at 500 g/ha: Nilaparvata lugens, in Oryza sativa, 96 h
Outline: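 Rice plants sprayed with compound diluted in water containing 1000 ppm emulsifier, then infested with brown planthopper. Mortality (%) scored after 4 days, 100% meaning all insects killed.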

[10] = system: Spodoptera frugiperda; assay: Spodoptera frugiperda spray test; settings: in Zea mays, 168 h
Outline: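 Leaf-spray assay on maize: sections treated with active ingredient at the desired concentration in emulsifier-containing water (1000 ppm) and, once dry, exposed to armyworm caterpillars. Kill rate is expressed in percent after seven days.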

[11] = system: Aedes aegypti strain MONHEIM; assay: Aedes aegypti test (AEDSAE surface treatment & contact assay); settings: 24 hours after contact, read-out: efficacy (mortality); for mortality at 4 mg/m2: surface concentration 4 mg/m^2, 30 minutes exposure; for mortality at 20 mg/m2: surface concentration 20 mg/m^2, 30 minutes exposure
Outline: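 Compound dissolved in acetone (2 mg/ml) with 2000 ppm rapeseed oil methyl ester and dried onto a glazed tile. Adult mosquitoes held on the treated surface for 30 minutes exposure. Percent mortality scored 24 hours after contact.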

[12] = system: Musca domestica strain WHO-N; assay: Musca domestica test (MUSCDO surface treatment & contact assay); settings: 24 hours after contact, read-out: efficacy (mortality); for mortality at 20 mg/m2: surface concentration 20 mg/m^2, 30 minutes exposure
Experimental: Musca domestica Test (MUSCDO Surface Treatment & Contact Assay)
(§2) Solvent: Aceton+2000 ppm rapeseed oil methyl ester (RME)
(§3) In order to produce a sufficient, active ingredient containing solution it is necessary to solve the test-compound in the solvent-mix (Acetone at 2 mg/ml/RME 2000 ppm). This solution is pipetted onto a glazed tile and after evaporation of the Acetone, adult flies of the species Musca domestica strain WHO-N are placed onto the dried surface. The exposure time is 30 minutes.
(§4) Mortality in percent (%) is determined 24 hours after contact to the treated surface. 100% mortality means that all test-insects are dead, whereas 0% means that not a single insect died.

[13] = system: Culex quinquefasciatus strain P00; assay: Culex quinquefasciatus test (CULXFA surface treatment & contact assay); settings: 24 hours after contact, read-out: efficacy (mortality); for mortality at 4 mg/m2: surface concentration 4 mg/m^2, 30 minutes exposure; for mortality at 20 mg/m2: surface concentration 20 mg/m^2, 30 minutes exposure
Outline: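 Compound dissolved in acetone (2 mg/ml) with 2000 ppm rapeseed oil methyl ester, applied to glazed tile and dried. Adult strain P00 mosquitoes exposed to the surface for 30 minutes. Percent mortality scored 24 hours after contact.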

[14] = system: Anopheles funestus strain FUMOZ-R; assay: Anopheles funestus test (ANPHFU surface treatment & contact assay); settings: 24 hours after contact, read-out: efficacy (mortality); for mortality at 4 mg/m2: surface concentration 4 mg/m^2, 30 minutes exposure; for mortality at 20 mg/m2: surface concentration 20 mg/m^2, 30 minutes exposure
Experimental: Anopheles funestus Test (ANPHFU Surface Treatment & Contact Assay)
as §2
as §3, with “mosquitoes” for “flies”, “Anopheles funestus” for “Musca domestica”, “FUMOZ-R (Hunt et al., Med Vet Entomol. 2005 September; 19(3):271-5)” for “WHO-N”
as §4

[15] = system: Myzus persicae; assay: Myzus persicae spray test; settings: in Brassica rapa, foliar, 120 h
Experimental: Myzus persicae—Spray Test
as §1
Chinese cabbage (Brassica pekinensis) leaf disks infected with all instars of the green peach aphid (Myzus persicae), are sprayed with a preparation of the active ingredient of the desired concentration.
After 5 days mortality in % is determined. 100% means all aphids have been killed and 0% means none of the aphids have been killed.

| SMILES | pest or weed control at 5 µg/cm2, 5 µg/cm2 [1] [%] | pest or weed control at 5 µg/cm2, 5 µg/cm2 [2] [%] | mortality at 100 ppm [3] [%] | pest or weed control at 0.02 mg [4] [%] | mortality at 500 g/ha [5] [%] | pest or weed control at 160 µg/disc, 160 µg/well [6] [%] | mortality at 4 ppm [7] [%] | mortality at 20 ppm [7] [%] | mortality at 500 g/ha [8] [%] | mortality at 500 g/ha [9] [%] | mortality at 500 g/ha [10] [%] | mortality at 20 mg/m2 [11] [%] | mortality at 20 mg/m2 [12] [%] | also measured |
| --- | --- | --- | --- | --- | --- | --- | --- | --- | --- | --- | --- | --- | --- | --- |
| CC(c1ncnn1-c1ncccn1)N(CC1CC1)C(=O)c1cncc(S(C)(=O)=O)c1 (centres unmarked) [Example I-002] | 80 | 100 | 100 | 100 | 100 |  |  |  |  |  |  |  |  |  |
| CC(c1ncnn1-c1ncccn1)N(CC1CC1)C(=O)c1cc(Cl)cc(S(C)(=O)=O)c1 (centres unmarked) [Example I-003, 3-chloro-N-(cyclopropylmethyl)-5-(methylsulfonyl)-N-{1-[1-(pyrimidin-2-yl)-1H-1,2,4-triazol-5-yl]ethyl}benzamide] | 100 | 100 | 100 | 100 | 100 | 100 | 90 | 100 | 100 | 100 |  |  |  |  |
| CC(c1ncnn1-c1ncccn1)N(CC1CC1)C(=O)c1cc(Cl)cc(Cl)c1Cl (centres unmarked) [Example I-009] |  |  | 100 |  |  | 100 | 100 | 100 | 100 |  | 100 |  |  |  |
| CC(c1ncnn1-c1ncccn1)N(CC1CC1)C(=O)c1cc(-c2ccc(F)cc2)cc(C(F)(F)F)c1 (centres unmarked) [Example I-012] |  |  | 100 |  |  | 100 |  | 100 | 100 |  | 100 |  |  |  |
| CC(c1ncnn1-c1ncccn1)N(CC1CC1)C(=O)c1cc(Cl)cc(S(=O)(=O)C(F)(F)F)c1 (centres unmarked) [Example I-019] |  | 100 | 100 | 100 | 100 | 100 | 100 | 100 | 100 | 100 | 100 | 90 to 100 | 80 to 100 | mortality at 4 mg/m2 [11]: 80 to 100%; mortality at 4 mg/m2 [13]: 80 to 100%; mortality at 20 mg/m2 [13]: 80 to 100% |
| CC(c1ncnn1-c1ncccn1)N(CC1CC1)C(=O)c1csc(Cl)c1 (centres unmarked) [Example I-021] | 80 | 100 | 100 | 80 |  |  |  |  |  |  |  |  |  |  |
| CC(c1ncnn1-c1ncccn1)N(CC1CC1)C(=O)c1cc(Cl)c(Cl)s1 (centres unmarked) [Example I-024] |  | 100 | 100 | 100 |  | 100 | 100 | 100 | 100 | 100 |  | 90 to 100 |  | mortality at 4 mg/m2 [14]: 85 to 100%; mortality at 20 mg/m2 [14]: 85 to 100% |
| CC(c1ncnn1-c1ncccn1)N(CC1CC1)C(=O)c1cc(C(F)(F)F)n(C)n1 (centres unmarked) [Example I-025] |  | 100 | 100 | 100 | 100 | 100 |  | 100 | 83 | 100 |  | 90 to 100 | 80 to 100 | mortality at 20 mg/m2 [13]: 80 to 100%; mortality at 4 mg/m2 [14]: 85 to 100%; mortality at 20 mg/m2 [14]: 85 to 100% |
| CC(c1ncnn1-c1ncccn1)N(CC1CC1)C(=O)c1cc(C2CC2)on1 (centres unmarked) [Example I-028] |  |  | 100 |  |  | 100 |  |  | 100 |  |  |  |  |  |
| CC(NC(=O)c1cc(Cl)cc(S(C)(=O)=O)c1)c1ncnn1-c1ncccn1 (centres unmarked) [Example I-037] |  |  |  |  |  |  |  |  |  |  |  |  |  | efficacy (ticks dead or moribund) [1]: 80%; efficacy (fleas dead or moribund) [2]: 100%; efficacy (seedlings grown) [6]: 100%; efficacy (infertile eggs) [4]: 100% |
| CC(NC(=O)c1cc(F)cc(C2CC2)c1)c1ncnn1-c1ncccn1 (centres unmarked) [Example I-045] |  |  |  |  |  |  |  |  |  |  |  |  |  | efficacy (ticks dead or moribund) [1]: 100%; efficacy (fleas dead or moribund) [2]: 100%; efficacy (seedlings grown) [6]: 100%; efficacy (infertile eggs) [4]: 100%; mortality ([9]; 500 g/ha, rice plants, after 4 days): 90% |
| C[C@@H](NC(=O)c1cc(OC(F)(F)F)cc(C2CC2)c1)c1ncnn1-c1ccc(C#N)cn1 [Example I-053] | 100 |  | 100 |  |  | 100 |  |  |  |  | 100 | 90 to 100 | 80 to 100 | mortality at 4 mg/m2 [11]: 80 to 100%; mortality at 4 mg/m2 ([12]; surface concentration 4 mg/m^2, 30 minutes exposure): 80 to 100% |
| CSc1cc(Cl)cc(C(=O)N[C@H](C)c2ncnn2-c2ccc(C#N)cn2)c1 [Example I-066] | 80 | 100 | 100 |  | 100 | 100 | 90 |  |  |  | 100 | 90 to 100 | 80 to 100 | mortality at 4 mg/m2 [11]: 80 to 100%; mortality at 4 mg/m2 [13]: 80 to 100%; mortality at 20 mg/m2 [13]: 80 to 100%; mortality at 500 g/ha [15]: 90%; mortality at 4 mg/m2 [14]: 85 to 100%; mortality at 20 mg/m2 [14]: 85 to 100% |
